Data on eight molecules can be found in PubChem BioAssay AID1259407 (Chemical Carcinogenesis Research Information System (CCRIS), 2018).

The source made the active and inactive calls. The rule behind the calls is not given here.

This data set concerns CCRIS mutagenicity, Ames/micronucleus/aberration tests. As to the kind of experiment: CCRIS mutagenicity studies.
Where [1] appears, read: Test System: AMES SALMONELLA TYPHIMURIUM, Strain/Indicator: TA98, Metabolic Activation: NONE, Method: STANDARD PLATE.
Where [2] appears, read: Test System: AMES SALMONELLA TYPHIMURIUM, Strain/Indicator: TA100, Metabolic Activation: NONE, Method: STANDARD PLATE.
The mark [3] stands for this setting: Test System: AMES SALMONELLA TYPHIMURIUM, Strain/Indicator: TA1537, Metabolic Activation: NONE, Method: STANDARD PLATE.
Setting [4] is: Test System: AMES SALMONELLA TYPHIMURIUM, Strain/Indicator: TA97, Metabolic Activation: NONE, Method: STANDARD PLATE.
The mark [5] stands for this setting: Test System: AMES SALMONELLA TYPHIMURIUM, Strain/Indicator: TA97, Metabolic Activation: RAT, LIVER, S-9, AROCLOR 1254, Method: STANDARD PLATE.
Where [6] appears, read: Test System: AMES SALMONELLA TYPHIMURIUM, Strain/Indicator: TA98, Metabolic Activation: RAT, LIVER, S-9, AROCLOR 1254, Method: STANDARD PLATE.
Where [7] appears, read: Test System: AMES SALMONELLA TYPHIMURIUM, Strain/Indicator: TA100, Metabolic Activation: RAT, LIVER, S-9, AROCLOR 1254, Method: STANDARD PLATE.

With `O=C(Nc1cc(Cl)cc(Cl)c1O)c1c(O)c(Cl)cc(Cl)c1Cl`, the mutagenic call is “inactive; negative” under setting [1]; “inactive; negative” (Test System: AMES SALMONELLA TYPHIMURIUM, Strain/Indicator: TA98, Metabolic Activation: RAT, LIVER, S-9, KANECHLOR 400, Method: STANDARD PLATE); “inactive; negative” under setting [2]; “inactive; negative” (Test System: AMES SALMONELLA TYPHIMURIUM, Strain/Indicator: TA100, Metabolic Activation: RAT, LIVER, S-9, KANECHLOR 400, Method: STANDARD PLATE); “inactive; negative” (Test System: AMES SALMONELLA TYPHIMURIUM, Strain/Indicator: TA1535, Metabolic Activation: NONE, Method: STANDARD PLATE); “inactive; negative” (Test System: AMES SALMONELLA TYPHIMURIUM, Strain/Indicator: TA1535, Metabolic Activation: RAT, LIVER, S-9, KANECHLOR 400, Method: STANDARD PLATE). Moreover, the mutagenic call is, setting by setting: under setting [3], “inactive; negative”; (Test System: AMES SALMONELLA TYPHIMURIUM, Strain/Indicator: TA1537, Metabolic Activation: RAT, LIVER, S-9, KANECHLOR 400, Method: STANDARD PLATE) “inactive; negative”; (Test System: AMES SALMONELLA TYPHIMURIUM, Strain/Indicator: TA1538, Metabolic Activation: NONE, Method: STANDARD PLATE) “inactive; negative”; (Test System: AMES SALMONELLA TYPHIMURIUM, Strain/Indicator: TA1538, Metabolic Activation: RAT, LIVER, S-9, KANECHLOR 400, Method: STANDARD PLATE) “inactive; negative”.

For `Nc1ccn([C@@H]2O[C@H](CO)[C@@H](O)C2O)c(=O)n1` (stereo partly drawn), the mutagenic call reads like this: (End Point: IN VITRO MICRONUCLEUS, Test System: CHINESE HAMSTER V79 CELLS, Metabolic Activation: NONE) “active; positive”; (End Point: IN VITRO MICRONUCLEUS, Test System: V79 CELLS, Metabolic Activation: NONE) “active; positive”; (End Point: In vitro chromosomal aberrations, Test System: Human lymphocytes, Metabolic Activation: None) “active; positive (structural changes) (effects significant without chm)”; (End Point: In vitro micronucleus, Test System: Human lymphoblastoid TK6 cells, Metabolic Activation: None) “active; positive (p<0.001)”; under setting [1], “inactive; negative”; (Test System: AMES SALMONELLA TYPHIMURIUM, Strain/Indicator: TA98, Metabolic Activation: S-9, Method: STANDARD PLATE) “inactive; negative”. In addition, the mutagenic call under setting [2] is “inactive; negative”; the mutagenic call (Test System: AMES SALMONELLA TYPHIMURIUM, Strain/Indicator: TA100, Metabolic Activation: S-9, Method: STANDARD PLATE) was “inactive; negative”; the mutagenic call (Test System: AMES SALMONELLA TYPHIMURIUM, Strain/Indicator: TA102, Metabolic Activation: NONE, Method: STANDARD PLATE) is “inactive; negative”; the mutagenic call under setting [3] was “inactive; negative”; the mutagenic call (Test System: AMES SALMONELLA TYPHIMURIUM, Strain/Indicator: TA1537, Metabolic Activation: S-9, Method: STANDARD PLATE) is “inactive; negative”; the mutagenic call (Test System: CHINESE HAMSTER V-79, Strain/Indicator: V-79 (HGPRT)/6-THIOGUANINE, Metabolic Activation: NONE) was “inactive; negative”. Further, the mutagenic call by setting is: (Test System: CHINESE HAMSTER V-79, Strain/Indicator: V-79/6-THIOGUANINE, Metabolic Activation: NONE, Method: SUSPENSION/PLATE) “active; positive”; (Test System: CHINESE HAMSTER V-79, Strain/Indicator: V-79/6-THIOGUANINE, Metabolic Activation: RAT, LIVER, HEPATOCYTES, Method: SUSPENSION/PLATE) “inactive; negative”; (Test System: CHINESE HAMSTER V-79, Strain/Indicator: V-79/8-AZAGUANINE, Metabolic Activation: NONE, Method: STANDARD PLATE) “active; positive”; (Test System: E. COLI, Strain/Indicator: WP2 (HCR), Metabolic Activation: NONE, Method: STANDARD PLATE) “active; positive”; (Test System: E. COLI, Strain/Indicator: WP2 (HCR), Metabolic Activation: S-9, Method: STANDARD PLATE) “active; positive”; (Test System: MOUSE LYMPHOMA, Strain/Indicator: L5178Y (TK+/TK-), Metabolic Activation: NONE, Method: MICROWELL) “active; positive”. In addition, the mutagenic call by setting is: (Test System: MOUSE LYMPHOMA, Strain/Indicator: L5178Y (TK+/TK-), Metabolic Activation: NONE, Method: SUSPENSION/PLATE) “active; positive”; (Test System: MOUSE LYMPHOMA, Strain/Indicator: L5178Y (TK+/TK-), Metabolic Activation: S-9, Method: MICROWELL) “active; positive”.

Consider `[O-][N+](=Nc1ccc(Cl)c(Cl)c1)c1ccc(Cl)c(Cl)c1`, for which the mutagenic call under setting [4] was “inactive; negative”; the mutagenic call under setting [5] was “inactive; negative”; the mutagenic call under setting [1] is “inactive; negative”; the mutagenic call under setting [6] was “inactive; negative”; the mutagenic call under setting [2] was “inactive; negative”; the mutagenic call under setting [7] is “inactive; negative”. Further, the mutagenic call is, setting by setting: (Test System: AMES SALMONELLA TYPHIMURIUM, Strain/Indicator: TA104, Metabolic Activation: NONE, Method: STANDARD PLATE) “inactive; negative”; (Test System: AMES SALMONELLA TYPHIMURIUM, Strain/Indicator: TA104, Metabolic Activation: RAT, LIVER, S-9, AROCLOR 1254, Method: STANDARD PLATE) “inactive; negative”; (Test System: CHINESE HAMSTER OVARY, Strain/Indicator: CHO-K1-BH4 (HGPRT), Metabolic Activation: NONE) “inactive; negative”; (Test System: CHINESE HAMSTER OVARY, Strain/Indicator: CHO-K1-BH4 (HGPRT), Metabolic Activation: RAT, LIVER, S-9, AROCLOR 1254) “inactive; negative”.

Consider `CC(=O)N(O)c1ccc(/C=C/c2ccccc2)cc1`, for which the mutagenic call is “inactive; negative” (Test System: AMES SALMONELLA TYPHIMURIUM, Strain/Indicator: TA98, Metabolic Activation: NONE, Method: PREINCUBATION); “active; positive” (Test System: AMES SALMONELLA TYPHIMURIUM, Strain/Indicator: TA98, Metabolic Activation: RAT, LIVER, CYTOSOL, Method: PREINCUBATION); “active; positive” (Test System: AMES SALMONELLA TYPHIMURIUM, Strain/Indicator: TA98, Metabolic Activation: RAT, LIVER, MICROSOMES, Method: PREINCUBATION); “active; positive” (Test System: CHINESE HAMSTER V-79, Strain/Indicator: V-79/6-THIOGUANINE, Metabolic Activation: NONE, Method: STANDARD PLATE).

For the molecule `OC[C@H]1OC(n2cnc3c2ncn2ccnc32)C[C@@H]1O` (stereo partly drawn), where the note is “Test System: AMES SALMONELLA TYPHIMURIUM, Strain/Indicator: TA100, Metabolic Activation: NONE, Method: PREINCUBATION”, the mutagenic call is “inactive; negative”.

For `NC(=O)Oc1ccccc1`, under “Test System: E. COLI, Strain/Indicator: WP2 UVRA, Metabolic Activation: NONE, Method: FLUCTUATION TEST”, the mutagenic call is “inactive; negative”.

As to `COP(=O)(OC)SC`, the mutagenic call under setting [4] is “inactive; negative”; the mutagenic call (Test System: AMES SALMONELLA TYPHIMURIUM, Strain/Indicator: TA97, Metabolic Activation: RAT, LIVER, S-9, AROCLOR 1254, Method: PREINCUBATION) is “inactive; negative”; the mutagenic call under setting [5] is “inactive; negative”; the mutagenic call under setting [1] was “inactive; negative”; the mutagenic call (Test System: AMES SALMONELLA TYPHIMURIUM, Strain/Indicator: TA98, Metabolic Activation: RAT, LIVER, S-9, AROCLOR 1254, Method: PREINCUBATION) was “inactive; negative”; the mutagenic call under setting [6] is “inactive; negative”. Also, the mutagenic call by setting is: under setting [2], “inactive; negative”; (Test System: AMES SALMONELLA TYPHIMURIUM, Strain/Indicator: TA100, Metabolic Activation: RAT, LIVER, S-9, AROCLOR 1254, Method: PREINCUBATION) “inactive; negative”; under setting [7], “inactive; negative”.

For the molecule `CC(=O)NO`, the mutagenic call under setting [1] was “active; positive”; the mutagenic call (Test System: AMES SALMONELLA TYPHIMURIUM, Strain/Indicator: TA98, Metabolic Activation: RAT, LIVER, S-9, Method: STANDARD PLATE) is “active; positive”; the mutagenic call (Test System: AMES SALMONELLA TYPHIMURIUM, Strain/Indicator: TA100, Metabolic Activation: RAT, LIVER, S-9, Method: STANDARD PLATE) was “inactive; negative”.
